Type in all cases: biochemical
The target of one experiment is T1, PI3Kβ (Homo sapiens, UniProt P42338).
T1 construct: made in house
Nature of the experiment: TR-FRET enzymatic activity assay, PI3Kβ. To be noted: Table 2a; same assay. On the technique in general: Time-resolved FRET reads energy transfer from a long-lived donor to a nearby acceptor.

A further experiment has as its target T2, PI3Kδ (Homo sapiens, UniProt O00329).
T2 construct: made in house
The experiment can be described thus: TR-FRET enzymatic activity assay, PI3Kδ. The conditions noted are these: Table 2a; same assay.

Another experiment deals with T3, PI3Kγ (Homo sapiens, UniProt P48736).
T3 construct: made in house
Nature of the experiment: TR-FRET enzymatic activity assay, PI3Kγ. To be noted: Table 2a; same assay; read-out: PI3Kγ IC50. An outline of the steps:
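Read-out is TR-FRET. The assay scores enzymatic activity of the individual PI3K isoforms in the presence of compound.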

Usually IC50 stands for the point on the concentration scale where inhibition reaches its midpoint.

T2 sequence (O00329 whole entry): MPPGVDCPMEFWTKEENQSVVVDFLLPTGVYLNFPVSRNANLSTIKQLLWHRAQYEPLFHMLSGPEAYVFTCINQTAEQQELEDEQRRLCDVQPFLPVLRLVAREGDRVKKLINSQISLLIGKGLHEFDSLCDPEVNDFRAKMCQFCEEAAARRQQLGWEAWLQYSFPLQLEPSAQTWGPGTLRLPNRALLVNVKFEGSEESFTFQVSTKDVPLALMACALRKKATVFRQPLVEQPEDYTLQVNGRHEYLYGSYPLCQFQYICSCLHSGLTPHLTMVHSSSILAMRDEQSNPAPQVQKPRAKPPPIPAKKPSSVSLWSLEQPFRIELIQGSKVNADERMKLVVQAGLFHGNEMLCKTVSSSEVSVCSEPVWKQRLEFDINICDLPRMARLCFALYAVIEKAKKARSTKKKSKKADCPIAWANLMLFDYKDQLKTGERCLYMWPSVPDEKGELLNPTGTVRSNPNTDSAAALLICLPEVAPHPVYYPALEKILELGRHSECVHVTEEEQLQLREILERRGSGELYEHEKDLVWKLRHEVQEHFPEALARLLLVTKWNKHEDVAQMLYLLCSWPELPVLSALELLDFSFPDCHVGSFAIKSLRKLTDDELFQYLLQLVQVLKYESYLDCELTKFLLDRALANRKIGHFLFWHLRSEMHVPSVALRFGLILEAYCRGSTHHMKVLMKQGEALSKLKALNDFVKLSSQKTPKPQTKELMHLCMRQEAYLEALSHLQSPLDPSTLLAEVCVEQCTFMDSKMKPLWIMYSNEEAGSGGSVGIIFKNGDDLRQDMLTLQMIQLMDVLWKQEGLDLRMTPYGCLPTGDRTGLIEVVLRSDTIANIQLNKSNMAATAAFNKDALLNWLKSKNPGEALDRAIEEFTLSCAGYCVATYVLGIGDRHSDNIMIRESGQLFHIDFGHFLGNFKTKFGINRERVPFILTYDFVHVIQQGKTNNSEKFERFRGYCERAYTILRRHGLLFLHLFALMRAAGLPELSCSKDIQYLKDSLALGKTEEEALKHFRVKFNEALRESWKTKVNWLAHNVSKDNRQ
T2 sequence (P27986 whole entry partner): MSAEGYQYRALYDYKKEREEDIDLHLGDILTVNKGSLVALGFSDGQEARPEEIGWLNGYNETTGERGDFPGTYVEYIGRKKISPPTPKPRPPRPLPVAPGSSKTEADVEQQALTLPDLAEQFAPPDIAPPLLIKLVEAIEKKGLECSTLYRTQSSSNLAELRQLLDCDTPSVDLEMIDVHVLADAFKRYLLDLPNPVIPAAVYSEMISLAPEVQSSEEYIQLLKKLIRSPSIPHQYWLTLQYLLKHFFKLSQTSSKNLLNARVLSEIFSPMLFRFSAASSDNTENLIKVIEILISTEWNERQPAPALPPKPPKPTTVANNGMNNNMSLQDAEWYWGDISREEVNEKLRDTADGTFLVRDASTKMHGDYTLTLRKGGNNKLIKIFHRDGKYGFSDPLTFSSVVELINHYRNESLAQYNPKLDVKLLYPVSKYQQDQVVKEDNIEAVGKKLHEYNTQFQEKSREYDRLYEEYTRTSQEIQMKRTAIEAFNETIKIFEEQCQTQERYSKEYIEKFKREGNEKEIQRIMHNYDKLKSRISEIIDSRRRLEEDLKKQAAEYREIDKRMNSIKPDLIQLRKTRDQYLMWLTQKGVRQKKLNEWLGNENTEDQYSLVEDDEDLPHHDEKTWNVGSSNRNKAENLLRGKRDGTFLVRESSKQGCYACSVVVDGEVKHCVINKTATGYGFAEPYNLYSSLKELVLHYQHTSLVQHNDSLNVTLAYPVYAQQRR
T3 sequence (P48736 whole entry): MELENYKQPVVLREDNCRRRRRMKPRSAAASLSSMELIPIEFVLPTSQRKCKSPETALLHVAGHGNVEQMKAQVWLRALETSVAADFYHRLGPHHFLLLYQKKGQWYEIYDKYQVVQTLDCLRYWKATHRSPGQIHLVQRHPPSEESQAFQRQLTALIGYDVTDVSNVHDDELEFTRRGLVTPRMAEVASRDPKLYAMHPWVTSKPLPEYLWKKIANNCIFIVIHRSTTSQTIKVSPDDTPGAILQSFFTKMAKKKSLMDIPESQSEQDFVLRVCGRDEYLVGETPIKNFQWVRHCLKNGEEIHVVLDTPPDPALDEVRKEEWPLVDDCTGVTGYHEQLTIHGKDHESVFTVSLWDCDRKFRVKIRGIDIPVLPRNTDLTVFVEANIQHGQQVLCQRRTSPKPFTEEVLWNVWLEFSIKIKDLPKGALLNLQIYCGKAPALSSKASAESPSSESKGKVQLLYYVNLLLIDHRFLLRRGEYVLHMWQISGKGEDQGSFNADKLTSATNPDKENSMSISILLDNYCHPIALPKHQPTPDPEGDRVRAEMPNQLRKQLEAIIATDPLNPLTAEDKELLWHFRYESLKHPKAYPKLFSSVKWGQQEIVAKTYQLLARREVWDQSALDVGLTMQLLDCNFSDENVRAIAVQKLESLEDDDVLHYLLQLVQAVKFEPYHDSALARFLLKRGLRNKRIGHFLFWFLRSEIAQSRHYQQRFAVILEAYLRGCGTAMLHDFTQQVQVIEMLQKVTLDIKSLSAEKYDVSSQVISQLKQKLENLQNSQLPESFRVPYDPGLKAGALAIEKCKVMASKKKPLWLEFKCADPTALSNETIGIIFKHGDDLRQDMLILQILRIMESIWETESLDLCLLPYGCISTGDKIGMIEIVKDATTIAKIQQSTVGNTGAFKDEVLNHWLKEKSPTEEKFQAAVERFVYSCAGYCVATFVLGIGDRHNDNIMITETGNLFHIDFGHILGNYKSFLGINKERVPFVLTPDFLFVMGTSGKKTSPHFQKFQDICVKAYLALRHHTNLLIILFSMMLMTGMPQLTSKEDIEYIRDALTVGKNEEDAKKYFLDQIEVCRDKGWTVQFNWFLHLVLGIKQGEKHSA
T1 sequence (P42338 whole entry): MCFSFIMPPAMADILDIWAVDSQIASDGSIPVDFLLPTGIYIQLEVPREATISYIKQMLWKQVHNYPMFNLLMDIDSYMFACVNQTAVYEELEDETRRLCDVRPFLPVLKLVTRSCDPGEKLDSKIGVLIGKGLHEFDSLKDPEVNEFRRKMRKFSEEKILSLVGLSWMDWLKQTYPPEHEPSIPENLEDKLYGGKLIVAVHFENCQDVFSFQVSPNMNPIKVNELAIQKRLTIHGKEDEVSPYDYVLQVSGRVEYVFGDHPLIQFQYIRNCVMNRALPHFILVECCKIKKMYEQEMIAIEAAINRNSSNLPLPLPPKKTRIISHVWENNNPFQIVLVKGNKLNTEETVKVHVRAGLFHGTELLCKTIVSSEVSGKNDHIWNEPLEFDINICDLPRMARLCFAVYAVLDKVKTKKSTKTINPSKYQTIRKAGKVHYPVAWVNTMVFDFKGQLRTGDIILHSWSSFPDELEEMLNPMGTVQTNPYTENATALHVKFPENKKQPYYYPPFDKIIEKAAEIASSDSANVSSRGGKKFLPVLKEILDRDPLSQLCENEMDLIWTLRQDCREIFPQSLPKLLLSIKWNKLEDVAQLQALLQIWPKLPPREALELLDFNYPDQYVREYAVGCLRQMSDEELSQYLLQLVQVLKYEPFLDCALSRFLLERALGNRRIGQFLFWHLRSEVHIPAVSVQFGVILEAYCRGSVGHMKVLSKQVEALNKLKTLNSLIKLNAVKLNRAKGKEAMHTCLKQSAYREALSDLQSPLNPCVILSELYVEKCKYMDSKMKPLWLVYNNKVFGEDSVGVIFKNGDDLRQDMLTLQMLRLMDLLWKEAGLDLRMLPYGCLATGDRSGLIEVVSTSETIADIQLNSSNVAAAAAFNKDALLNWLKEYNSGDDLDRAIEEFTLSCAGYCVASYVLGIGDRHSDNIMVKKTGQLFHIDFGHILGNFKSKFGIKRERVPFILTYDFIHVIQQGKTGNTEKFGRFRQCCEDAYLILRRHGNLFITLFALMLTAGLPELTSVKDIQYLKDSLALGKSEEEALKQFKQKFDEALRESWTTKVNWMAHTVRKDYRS
T1 sequence (P27986 whole entry partner): as the sequence (P27986 whole entry partner) above

On to `N#Cc1c(N[C@H](c2nc3c(F)cc(F)cc3c(=O)n2-c2cc[nH]n2)C2CC2)nc(N)nc1C(F)F` [Compound 195, (S)-2-amino-4-((cyclopropyl(6,8-difluoro-4-oxo-3-(1H-pyrazol-3-yl)-3,4-dihydroquinazolin-2-yl)methyl)amino)-6-(difluoromethyl)pyrimidine-5-carbonitrile], for which the IC50 on PI3Kβ was 42 nM; at PI3Kδ, 24 nM; at PI3Kγ it was 3800 nM.

As for `N#Cc1c(N[C@H](c2nc3c(Cl)cccc3c(=O)n2-c2cc[nH]n2)C2CC2)nc(N)nc1C(F)F` [Compound 196, (S)-2-amino-4-(((8-chloro-4-oxo-3-(1H-pyrazol-3-yl)-3,4-dihydroquinazolin-2-yl)(cyclopropyl)methyl)amino)-6-(difluoromethyl)pyrimidine-5-carbonitrile], the IC50 against PI3Kβ was determined as 19 nM; on PI3Kδ it was 19 nM; at PI3Kγ, 6900 nM.

For the compound `C[C@H](Nc1nc(C(F)F)nc(N)c1C#N)c1nc2cccc(Cl)c2c(=O)n1-c1cc[nH]n1` [Compound 197, (S)-4-amino-6-((1-(5-chloro-4-oxo-3-(1H-pyrazol-3-yl)-3,4-dihydroquinazolin-2-yl)ethyl)amino)-2-(difluoromethyl)pyrimidine-5-carbonitrile], the IC50 at PI3Kβ was 700 nM; on PI3Kδ, 540 nM; on PI3Kγ, > 10000 nM.

As to `C[C@H](Nc1nc(C(F)F)nc(N)c1C#N)c1nc2c(Cl)cc(F)cc2c(=O)n1-c1cc[nH]n1` [Compound 198, (S)-4-amino-6-((1-(8-chloro-6-fluoro-4-oxo-3-(1H-pyrazol-3-yl)-3,4-dihydroquinazolin-2-yl)ethyl)amino)-2-(difluoromethyl)pyrimidine-5-carbonitrile], the IC50 was 580 nM at PI3Kβ, 830 nM at PI3Kδ and > 10000 nM on PI3Kγ.

For the compound `C[C@H](Nc1nc(N)nc(N)c1Cl)c1nc2cccc(Cl)c2c(=O)n1-c1cc(N)[nH]n1` [Compound 199, (S)-3-(5-amino-1H-pyrazol-3-yl)-5-chloro-2-(1-((2,6-diamino-5-chloropyrimidin-4-yl)amino)ethyl)quinazolin-4(3H)-one], the IC50 stood at 7 nM at PI3Kβ, 16 nM on PI3Kδ and 5400 nM at PI3Kγ.

In the case of `C[C@H](Nc1nc(N)nc(N)c1Cl)c1nc2c(C(F)F)cccc2c(=O)n1-c1cc[nH]n1` [Compound 200, (S)-2-(1-((2,6-diamino-5-chloropyrimidin-4-yl)amino)ethyl)-8-(difluoromethyl)-3-(1H-pyrazol-3-yl)quinazolin-4(3H)-one], the IC50 was 280 nM at PI3Kβ, 160 nM against PI3Kδ and > 10000 nM at PI3Kγ.

Take `C[C@H](Nc1nc(N)nc(N)c1C(F)(F)F)c1nc2cccc(Cl)c2c(=O)n1-c1cc[nH]n1` [Compound 201, (S)-5-chloro-2-(1-((2,6-diamino-5-(trifluoromethyl)pyrimidin-4-yl)amino)ethyl)-3-(1H-pyrazol-3-yl)quinazolin-4(3H)-one]: the IC50 against PI3Kβ stood at 3 nM; against PI3Kδ it was 3 nM; at PI3Kγ, 1000 nM.

Take `C[C@H](Nc1ncnc2scc(C#N)c12)c1nc2cccc(Cl)c2c(=O)n1-c1cc[nH]n1` [Compound 202, (S)-4-((1-(5-chloro-4-oxo-3-(1H-pyrazol-3-yl)-3,4-dihydroquinazolin-2-yl)ethyl)amino)thieno[2,3-d]pyrimidine-5-carbonitrile]: the concentration for half-maximal inhibition (IC50) on PI3Kβ turned out to be 62 nM; at PI3Kδ, 0.5 nM; on PI3Kγ, 14 nM.

Turning to `Cc1c[nH]nc1-n1c([C@@H](Nc2nc(N)nc(C)c2C#N)C2CC2)nc2c(C#N)cccc2c1=O` [Compound 203, (S)-2-(((2-amino-5-cyano-6-methylpyrimidin-4-yl)amino)(cyclopropyl)methyl)-3-(4-methyl-1H-pyrazol-3-yl)-4-oxo-3,4-dihydroquinazoline-8-carbonitrile], the results for the IC50 against PI3Kβ, on PI3Kδ and at PI3Kγ were 37 nM, 5 nM and > 10000 nM, respectively.

On to `Cc1c[nH]nc1-n1c([C@@H](Nc2nc(N)nc(N)c2Cl)C2CC2)nc2c(C#N)cccc2c1=O` [Compound 204, (S)-2-(cyclopropyl((2,6-diamino-5-chloropyrimidin-4-yl)amino)methyl)-3-(4-methyl-1H-pyrazol-3-yl)-4-oxo-3,4-dihydroquinazoline-8-carbonitrile], for which the IC50 against PI3Kβ is 3200 nM; on PI3Kδ it was 310 nM; on PI3Kγ, > 10000 nM.

Regarding `C[C@H](Nc1nc(N)nc(N)c1C#N)c1nc2cccc(C(F)(F)F)c2c(=O)n1-c1cc[nH]n1` [Compound 205, (S)-2,4-diamino-6-((1-(4-oxo-3-(1H-pyrazol-3-yl)-5-(trifluoromethyl)-3,4-dihydroquinazolin-2-yl)ethyl)amino)pyrimidine-5-carbonitrile], the figures for the half-maximal inhibitory concentration (IC50) on PI3Kβ, against PI3Kδ and at PI3Kγ were 2 nM, 0.7 nM and 320 nM, respectively.

Turning to `C[C@H](Nc1nc(N)nc(N)c1C#N)c1nc2cccc(C(F)(F)F)c2c(=O)n1-c1cn[nH]c1` [Compound 206, (S)-2,4-diamino-6-((1-(4-oxo-3-(1H-pyrazol-4-yl)-5-(trifluoromethyl)-3,4-dihydroquinazolin-2-yl)ethyl)amino)pyrimidine-5-carbonitrile], the IC50 was 3 nM against PI3Kβ, 2 nM against PI3Kδ and 120 nM on PI3Kγ.

Regarding `N#Cc1c(N)nc(N)nc1N[C@H](c1nc2cccc(C(F)(F)F)c2c(=O)n1-c1cc[nH]n1)C1CC1` [Compound 207, (S)-2,4-diamino-6-((cyclopropyl(4-oxo-3-(1H-pyrazol-3-yl)-5-(trifluoromethyl)-3,4-dihydroquinazolin-2-yl)methyl)amino)pyrimidine-5-carbonitrile], the IC50 against PI3Kβ amounted to 4 nM; against PI3Kδ it was 2 nM; on PI3Kγ, 640 nM.

Take `C[C@H](Nc1nc(N)nc(N)c1Cl)c1nc2cccc(C(F)(F)F)c2c(=O)n1-c1cc[nH]n1` [Compound 208, (S)-2-(1-((2,6-diamino-5-chloropyrimidin-4-yl)amino)ethyl)-3-(1H-pyrazol-3-yl)-5-(trifluoromethyl)quinazolin-4(3H)-one]: the IC50 against PI3Kβ came to 8 nM; against PI3Kδ, 6 nM; at PI3Kγ it was 4400 nM.

Turning to `C[C@H](Nc1nc(N)nc(N)c1Cl)c1nc2cccc(C(F)(F)F)c2c(=O)n1-c1cn[nH]c1` [Compound 209, (S)-2-(1-((2,6-diamino-5-chloropyrimidin-4-yl)amino)ethyl)-3-(1H-pyrazol-4-yl)-5-(trifluoromethyl)quinazolin-4(3H)-one], the IC50 against PI3Kβ is 83 nM; against PI3Kδ, 16 nM; on PI3Kγ, 1800 nM.

For the compound `Nc1nc(N)c(Cl)c(N[C@H](c2nc3cccc(C(F)(F)F)c3c(=O)n2-c2cc[nH]n2)C2CC2)n1` [Compound 210, (S)-2-(cyclopropyl((2,6-diamino-5-chloropyrimidin-4-yl)amino)methyl)-3-(1H-pyrazol-3-yl)-5-(trifluoromethyl)quinazolin-4(3H)-one], the IC50 on PI3Kβ came out at 37 nM; on PI3Kδ, 19 nM; at PI3Kγ, 6600 nM.

For the compound `C[C@H](Nc1nc(N)nc(N)c1C#N)c1nc2cccc(C(F)F)c2c(=O)n1-c1cc[nH]n1` [Compound 211, (S)-2,4-diamino-6-((1-(5-(difluoromethyl)-4-oxo-3-(1H-pyrazol-3-yl)-3,4-dihydroquinazolin-2-yl)ethyl)amino)pyrimidine-5-carbonitrile], the concentration for half-maximal inhibition (IC50) against PI3Kβ was 0.6 nM; against PI3Kδ it was 0.3 nM; at PI3Kγ, 82 nM.

Turning to `C[C@H](Nc1nc(N)nc(N)c1C#N)c1nc2cccc(C(F)F)c2c(=O)n1-c1cn[nH]c1` [Compound 212, (S)-2,4-diamino-6-((1-(5-(difluoromethyl)-4-oxo-3-(1H-pyrazol-4-yl)-3,4-dihydroquinazolin-2-yl)ethyl)amino)pyrimidine-5-carbonitrile], the IC50 amounted to 1 nM on PI3Kβ, 0.7 nM at PI3Kδ and 34 nM at PI3Kγ.

Consider `C[C@H](Nc1nc(N)nc(N)c1Cl)c1nc2cccc(C(F)F)c2c(=O)n1-c1cn[nH]c1` [Compound 213, (S)-2-(1-((2,6-diamino-5-chloropyrimidin-4-yl)amino)ethyl)-5-(difluoromethyl)-3-(1H-pyrazol-4-yl)quinazolin-4(3H)-one], for which the IC50 against PI3Kβ is 36 nM; on PI3Kδ, 5 nM; at PI3Kγ it was 520 nM.

As for `N#Cc1c(N)nc(N)nc1N[C@H](c1nc2cccc(C(F)F)c2c(=O)n1-c1cc[nH]n1)C1CC1` [Compound 214, (S)-2,4-diamino-6-((cyclopropyl(5-(difluoromethyl)-4-oxo-3-(1H-pyrazol-3-yl)-3,4-dihydroquinazolin-2-yl)methyl)amino)pyrimidine-5-carbonitrile], the IC50 on PI3Kβ stood at 2 nM; against PI3Kδ it was 0.6 nM; on PI3Kγ it was 240 nM.

In the case of `Nc1nc(N)c(Cl)c(N[C@H](c2nc3cccc(C(F)F)c3c(=O)n2-c2cc[nH]n2)C2CC2)n1` [Compound 215, (S)-2-(cyclopropyl((2,6-diamino-5-chloropyrimidin-4-yl)amino)methyl)-5-(difluoromethyl)-3-(1H-pyrazol-3-yl)quinazolin-4(3H)-one], the concentration for half-maximal inhibition (IC50) against PI3Kβ came to 10 nM; against PI3Kδ, 6 nM; on PI3Kγ, 2700 nM.

For `Cc1n[nH]cc1-n1c([C@H](C)Nc2nc(N)nc(N)c2C#N)nc2cccc(Cl)c2c1=O` [Compound 216, (S)-2,4-diamino-6-((1-(5-chloro-3-(3-methyl-1H-pyrazol-4-yl)-4-oxo-3,4-dihydroquinazolin-2-yl)ethyl)amino)pyrimidine-5-carbonitrile], the IC50 at PI3Kβ is 3 nM; at PI3Kδ, 0.4 nM; on PI3Kγ it was 40 nM.

Turning to `C[C@H](Nc1nc(N)nc(N)c1C#N)c1nc2c(Cl)ccc(Cl)c2c(=O)n1-c1cn[nH]c1` [Compound 217, (S)-2,4-diamino-6-((1-(5,8-dichloro-4-oxo-3-(1H-pyrazol-4-yl)-3,4-dihydroquinazolin-2-yl)ethyl)amino)pyrimidine-5-carbonitrile], the IC50 against PI3Kβ amounted to 0.6 nM; on PI3Kδ it was 0.2 nM; at PI3Kγ, 83 nM.

(Values after patent US10308639B2, “Phosphatidylinositol 3-kinase inhibitors” (Gilead Sciences, Inc., priority 2014, dated 2019).)
